Reference: ChEMBL document CHEMBL1122080, “2- and 6-methyl-1,4-naphthoquinone derivatives and potential bioreductive alkylating agents” (1982)

Assays:
Assay type in all cases: functional
[1] = test system: Mus musculus; experiment: Average weight change in mice bearing sarcoma 180 ascites cells at dose 10 mg/kg
[2] = test system: Mus musculus; experiment: Average weight change in mice bearing sarcoma 180 ascites cells at dose 5 mg/kg
[3] = test system: Mus musculus; experiment: Average weight change in mice bearing sarcoma 180 ascites cells at dose 20 mg/kg
[4] = test system: Mus musculus; experiment: Ratio of the survival time of treated to control animals at dose 20 mg/kg
[5] = test system: Mus musculus; experiment: Ratio of the survival time of treated to control animals at dose 5 mg/kg
[6] = test system: Mus musculus; experiment: Average weight change in mice bearing sarcoma 180 ascites cells at dose 2.5 mg/kg
[7] = test system: Mus musculus; experiment: Ratio of the survival time of treated to control animals at dose 2.5 mg/kg
[8] = test system: Mus musculus; experiment: Ratio of the survival time of treated to control animals at dose 10 mg/kg

Compound	Average weight change [1] [%]	Average weight change [2] [%]	Average weight change [3] [%]	T/C [4]	T/C [5]	Average weight change [6] [%]	T/C [7]	T/C [8]
O=C1C=C(CBr)C(=O)c2ccccc21	-7.7	-5.4	-9.1	1.69	1.73	1.7	1.61	1.49
O=C1C=CC(=O)c2cc(CCl)ccc21	-13.5	-10.4	–	0.22	1.38	–	–	1.05
O=C1C=CC(=O)c2cc(CO)ccc21	–	–	–	–	–	-9.1	1.16	0.17
CS(=O)(=O)OCc1ccc2c(c1)C(=O)C=CC2=O	-11.8	-6.3	-13.3	1.44	1.71	–	–	1.43
O=C(NCCCl)OCC1=CC(=O)c2ccccc2C1=O	-11.4	-4.6	-13.8	1.96	2.08	–	–	1.71
O=C1C=CC(=O)c2cc(CBr)ccc21	-11.3	-7.8	-12.5	0.57	1.46	-4.2	2.07	1.42
O=C(NCCCl)OCc1ccc2c(c1)C(=O)C=CC2=O	-11.7	-9	-17.3	0.5	1.47	–	–	1.63
Cc1ccc(S(=O)(=O)OCC2=CC(=O)c3ccccc3C2=O)cc1	-4.4	2.8	-7.4	1.62	1.77	–	–	2.16
CCOCc1ccc2c(c1)C(=O)C=CC2=O	-10.3	-6.4	–	0.42	1.32	–	–	0.97
Cc1ccc(S(=O)(=O)OCc2ccc3c(c2)C(=O)C=CC3=O)cc1	-11.6	-3.8	-15.2	1.64	1.44	–	–	1.82
COCC1=CC(=O)c2ccccc2C1=O	1.6	17	-19	1.07	0.98	–	–	1.38
O=C1C=C(CCl)C(=O)c2ccccc21	-9.8	-2	-16.4	1.3	1.4	–	–	1.47
CC(=O)OCC1=CC(=O)c2ccccc2C1=O	-14.4	-9.3	-10.2	0.7	1.66	–	–	1.62
CNC(=O)OCC1=CC(=O)c2ccccc2C1=O	-10.5	-12.6	-11.4	0.51	1.39	–	–	1.51
Cc1ccc2c(c1)C(=O)C=CC2=O	-11.1	-11.5	–	0.26	1.09	–	–	0.38
CC(=O)OCc1ccc2c(c1)C(=O)C=CC2=O	–	-2.9	-7.4	0.48	1.35	–	–	0.93
O=C1C=C(CO)C(=O)c2ccccc21	-15.2	-6.4	–	0.22	1.16	–	–	0.45
CS(=O)(=O)OCC1=CC(=O)c2ccccc2C1=O	-8.3	-6.3	-8.8	1.41	1.92	–	–	1.57
CNC(=O)OCc1ccc2c(c1)C(=O)C=CC2=O	-7.8	-7.6	-10.8	0.81	1.71	–	–	1.61
CC1=CC(=O)c2ccccc2C1=O [MENADIONE]	17.3	18.7	-2	1.34	0.85	–	–	1.03
